Values of other authors in patent US9034354B2, “Bacteriostatic and anti-collagenolytic dental materials through the incorporation of polyacrylic acid modified CuI nanoparticles” (MUSC Foundation for Research Development, priority 2012, dated 2015).

Tested on: Streptococcus mutans
Conditions: discs of composite resin containing MDPB versus discs without MDPB, in the presence of Streptococcus mutans

In the case of `C=C(C)C(=O)OCCCCCCCCCCCC[n+]1ccccc1.[Br-]` [MDPB, 12-methacryloyloxydodecylpyridinium bromide], the “numbers of bacteria recovered from the discs reduced by” value is given as 97%.
